Experimental data reported in patent US11618746B2, “Inhibitors of APOL1 and methods of using same” (Vertex Pharmaceuticals Incorporated, priority 2018, dated 2023).

What follows are molecules tested against T1, G1 APOL1 (Homo sapiens, UniProt O14791, I384M/S342G) (assay: Acute APOL1 Thallium Assay with inducible stable clones of HEK 293 cells). Settings: HEK T-Rex tetracycline-inducible cells expressing G1 APOL1 (clone G1 DC3.25); inhibition of thallium flux rate.
T1 construct: expressed in transfected cells
T1 sequence (O14791 28-398 S342G/I384M): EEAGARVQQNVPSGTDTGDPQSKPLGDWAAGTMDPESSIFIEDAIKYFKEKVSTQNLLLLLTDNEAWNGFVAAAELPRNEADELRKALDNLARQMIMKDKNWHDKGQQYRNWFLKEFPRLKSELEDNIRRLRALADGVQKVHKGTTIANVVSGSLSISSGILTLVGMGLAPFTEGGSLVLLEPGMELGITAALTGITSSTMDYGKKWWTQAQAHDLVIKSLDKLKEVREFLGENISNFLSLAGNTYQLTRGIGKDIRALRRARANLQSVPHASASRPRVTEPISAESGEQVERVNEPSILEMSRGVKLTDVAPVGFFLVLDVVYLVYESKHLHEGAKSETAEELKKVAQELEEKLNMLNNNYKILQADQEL
Assay type: cell-based
Text: Acute APOL1 Thallium Assay with Inducible Stable Clones of HEK 293 Cells
Apolipoprotein L1 (APOL1) proteins form potassium-permeable cation pores in the plasma membrane. APOL1 risk variants (G1 and G2) induce greater potassium flux than G0 in HEK293 cells. This assay exploits the permeability of thallium (T1+) through ligand-gated potassium channels. The dye produces a bright fluorescent signal upon binding to T1+ conducted through potassium channels. The intensity of the T1+ signal is proportional to the number of potassium channels in the open state. Therefore, it provides a functional indication of the potassium channel activities. During the initial dye-loading step, the T1+ indicator dye as an acetoxymethyl (AM) ester enters the cells through passive diffusion. Cytoplasm esterases cleave the AM ester and relieve its active thallium-sensitive form. The cells are then stimulated with T1+. The increase of fluorescence in the assay represents the influx of T1+ into the cell specifically through the potassium channel (i.e. through APOL1 pores), providing a functional measurement of potassium channel/pore activity. The Thallium assay is conducted with cells expressing G1 APOL1.
APOL1 Cell Line (HEK T-Rex Stable Inducible Cell Line) • HEK T-Rex System • Tetracycline (Tet) inducible mammalian expression system. • Stably express the Tet repressor to regulate transcription. • Expression under the full-length CMV promoter. • APOL1 stable inducible cell line Clone used: G1 DC3.25
Tissue Culture Media • Cell Culture Medium • DMEM +10% FBS +P/S +5 μg/mL blasticidin+1 μg/mL puromycin. • 500 mL DMEM +55 mL FBS +5 mL P/S +280 μL blasticidin S HCl (10 mg/mL)+56 μL puromycin (10 mg/mL). • Cell Assay Medium • DMEM with 2% FBS+pen strep.
Instruments and Equipment • Nuaire cell culture hood, Cat. No. 540-600 • 37° C./5% CO2 incubator link to robotic arm, Liconic: STX110 • Molecular Devices FLIPR^Tetra High throughput cellular screening system, Cat. No. FT0324, Molecular Devices • ThermoFisher MultiDrop 384, Cat. No. 5840300 • Biotek Microfill, Cat. No. ASF1000A-4145 • BioRad TC10 cell counter, Cat. No. 145-0010 Assay Procedures
Cells Scaled Up from Frozen Vials • APOL1 G1 3.25 (HEK293 T-Rex) frozen vials: 5 million cells per vial • Step 1, Day 1: Defrost frozen vial into T-225. • Step 2, Day 5: (when 85% confluent): Split one T-225 at 3×10^6 cells per flask. • Step 3, Day 8: Splits cells to set up for the assay plates as described below.
T-Rex APOL1 HEK cells are split twice per week to keep the confluence state below 85% of the culture flask surface area. Cells can be kept until passage 25. • Cell Culture Medium • DMEM high glucose +10% FBS, +P/S, +5 μg/mL blasticidin, +1 μg/mL puromycin. • 500 mL DMEM, +55 mL FBS, +5 mL P/S, +280 μL blasicidin 10 mg/mL, +56 μL Puromycin 10 mg/mL. • Assay Media • Opti-MEM reduced serum medium from Invitrogen.
Preparation of Cell Assay Plates • Culture medium is removed from the x cm^2 T-flask by aspiration. • The cell monolayer is rinsed with PBS 1× at room temperature. PBS is removed by aspiration. • Cells are trypsinized using Trypsin. • The flasks are incubated at room temperature for 2-3 minutes. • Complete DMEM medium is then added. Cell suspension is then transferred to a 50 mL Falcon polypropylene tube. • Cells are then counted using a Biorad TC10 cell counter and the required amount of cells are centrifuged at 1200 RPM for 5 minutes. Required amount is 1.3×10^6 cells/mL APOL1 T-Rex HEK cells. • The pellet is suspended in the assay medium. • Using the MultiDrop, add 20 μL to each well (corresponds to 26000 cells total per well) of a 384-well black, transparent, flat bottom Poly-D coated plate. • Tetracycline as prepared in the following section is added to the cells before plating to induce APOL1 expression. • Plates are left at room temperature for 20 to 30 minutes before incubation at 37° C. and 5% CO2. […]
For `Cc1c(F)ccc2c(CCC(=O)N[C@@H]3C(=O)NC[C@H]3O)c(-c3ccccc3)[nH]c12` [Compound 84], the IC50 was less than 250 nM.
`C[C@@H](Cc1c(-c2ccc(F)cc2)[nH]c2c(F)cc(F)cc12)C(=O)N[C@H]1CCNC1=O` [Compound 90, (2S)-3-[5,7-difluoro-2-(4-fluorophenyl)-1H-indol-3-yl]-2-methyl-N-[(3S)-2-oxopyrrolidin-3-yl]propanamide] showed an IC50 greater than 1000 nM.
Work on `C[C@@H](Cc1c(-c2ccc(F)cc2)[nH]c2c(F)cc(F)cc12)C(=O)N[C@@H]1C(=O)NC[C@H]1O` [Compound 91, (2S)-3-[5,7-difluoro-2-(4-fluorophenyl)-1H-indol-3-yl]-N-[(3S,4R)-4-hydroxy-2-oxo-pyrrolidin-3-yl]-2-methyl-propanamide] yielded an IC50 of 250 to 1000 nM.
In the case of `O=C(N[C@@H]1C(=O)NC[C@H]1O)[C@H](O)Cc1c(-c2ccc(F)cc2)[nH]c2c(F)cc(F)cc12` [Compound 92, (2R)-3-[5,7-difluoro-2-(4-fluorophenyl)-1H-indol-3-yl]-2-hydroxy-N-[(3S,4R)-4-hydroxy-2-oxo-pyrrolidin-3-yl]propanamide], the IC50 is reported as greater than 1000 nM.
`O=C(N[C@H]1CCNC1=O)[C@H](O)Cc1c(-c2ccc(F)cc2)[nH]c2c(F)cc(F)cc12` [Compound 93, (2R)-3-[5,7-difluoro-2-(4-fluorophenyl)-1H-indol-3-yl]-2-hydroxy-N-[(3S)-2-oxopyrrolidin-3-yl]propanamide] was tested, and the IC50 was greater than 1000 nM.
Molecule `O=C1NC[C@@H](O)[C@@H]1NC(=O)[C@@H](O)Cc1c(-c2ccc(F)cc2)[nH]c2c(F)cc(F)cc12` [Compound 94, (2S)-3-[5,7-difluoro-2-(4-fluorophenyl)-1H-indol-3-yl]-2-hydroxy-N-[(3S,4R)-4-hydroxy-2-oxo-pyrrolidin-3-yl]propanamide] has an IC50 greater than 1000 nM.
For `O=C(CCc1c(-c2ccc(F)cc2)[nH]c2c(C(F)F)cc(F)cc12)N[C@@H]1C(=O)NC[C@H]1O` [Compound 100, 3-[7-(difluoromethyl)-5-fluoro-2-(4-fluorophenyl)-1H-indol-3-yl]-N-[(3S,4R)-4-hydroxy-2-oxo-pyrrolidin-3-yl]propanamide], the IC50 was less than 250 nM.
`O=C(CCc1c(-c2ccc(F)cc2)[nH]c2c(F)cc(OC(F)F)cc12)N[C@@H]1C(=O)NC[C@H]1O` [Compound 106] showed an IC50 of less than 250 nM.
`O=C(CCc1c(-c2ccc(F)cc2)[nH]c2c(C(F)(F)F)cccc12)N[C@@H]1C(=O)NC[C@H]1O` [Compound 111, 3-[2-(4-fluorophenyl)-7-(trifluoromethyl)-1H-indol-3-yl]-N-[(3S,4R)-4-hydroxy-2-oxo-pyrrolidin-3-yl]propanamide] showed an IC50 of less than 250 nM.
Molecule `O=C(CCc1c(-c2ccc(Cl)cc2)[nH]c2c(Cl)cccc12)N[C@@H]1C(=O)NC[C@H]1O` [Compound 113, 3-[7-chloro-2-(4-chlorophenyl)-1H-indol-3-yl]-N-[(3S,4R)-4-hydroxy-2-oxo-pyrrolidin-3-yl]propanamide] has an IC50 of less than 250 nM.
Work on `O=C(CCc1c(-c2ccc(OC(F)F)cc2)[nH]c2ccccc12)N[C@@H]1C(=O)NC[C@H]1O` [Compound 117] yielded an IC50 of less than 250 nM.
Molecule `Cc1cc(F)ccc1-c1[nH]c2ccccc2c1CCC(=O)N[C@@H]1C(=O)NC[C@H]1O` [Compound 119] has an IC50 of 250 to 1000 nM.
Molecule `O=C(CSc1c(-c2ccc(F)cc2)[nH]c2ccccc12)N[C@@H]1C(=O)NC[C@H]1O` [Compound 130, 2-[[2-(4-fluorophenyl)-1H-indol-3-yl]sulfanyl]-N-[(3S,4R)-4-hydroxy-2-oxo-pyrrolidin-3-yl]acetamide] has an IC50 of less than 250 nM.
`O=C(CCc1c(-c2ccccc2)[nH]c2c(C(F)(F)F)cc(F)cc12)N[C@@H]1C(=O)NC[C@H]1O` [Compound 132, 3-[5-fluoro-2-phenyl-7-(trifluoromethyl)-1H-indol-3-yl]-N-[(3S,4R)-4-hydroxy-2-oxo-pyrrolidin-3-yl]propanamide] gave an IC50 of less than 250 nM.
`O=C(CCc1c(-c2ccc(F)cc2)[nH]c2ccccc12)N[C@H]1C(=O)NC[C@H]1O` [Compound 133, 3-[2-(4-fluorophenyl)-1H-indol-3-yl]-N-[(3R,4R)-4-hydroxy-2-oxo-pyrrolidin-3-yl]propanamide] was tested, and the IC50 was 250 to 1000 nM.
For `O=C(CCc1c(-c2ccc(F)cc2)[nH]c2ccccc12)N[C@H]1C(=O)NC[C@@H]1O` [Compound 134, 3-[2-(4-fluorophenyl)-1H-indol-3-yl]-N-[(3R,4S)-4-hydroxy-2-oxo-pyrrolidin-3-yl]propanamide], the IC50 was greater than 1000 nM.
In the case of `O=C(CCc1c(-c2ccc(F)cc2)[nH]c2ccccc12)N[C@@H]1C(=O)NC[C@@H]1O` [Compound 135, 3-[2-(4-fluorophenyl)-1H-indol-3-yl]-N-[(3S,4S)-4-hydroxy-2-oxo-pyrrolidin-3-yl]propanamide], the IC50 is reported as greater than 1000 nM.
